{
  "source": "patent US20250295617A1",
  "about": "“METABOLITES FOR TREATMENT AND PREVENTION OF AUTOIMMUNE DISEASE” (MONASH UNIVERSITY, priority 2016, published 2025)",
  "key": {"female NOD mice": {"test_system": "female NOD mice", "details": "acetate in drinking water from 5 weeks of age", "protocol": "To standardise microbiota, prior to beginning diets mice from multiple litters were mixed and randomly allocated to groups. The purified diets used were based on a balanced modification of the AIN93-G diet as described previously (Bajka et al., 2006). Mice were fed for 3-5 weeks starting at 3, 5 or 10 weeks of age. SCFAs in faeces, blood and caecal content were analysed as previously described in (Bajka et al., 2006). Diabetes was monitored as previously described (Mariño et al., 2009).\nTo determine whether oral administration of acetate (to increase its concentration in the circulation) could modulate disease progression, acetate was added to the drinking water of NOD female mice."}, "pancreatic islets": {"test_system": "pancreatic islets", "assay": "Insulitis scoring of pancreatic islets", "assay_type": "in vivo, mouse", "details": "10 weeks of age, 5 weeks after starting acetate treatment", "excerpt": "Pancreatic tissue was processed and stained using standard procedures. For insulitis scoring, pancreata sections were taken at 3 […] (100 μm apart). At least 100 islets were scored from 5 to 15 mice. Islets were graded according to the following system: Grade 0—no indication of insulitis, Grade 1—<25% infiltration, Grade 2—25-50% infiltration, Grade 3—50-75% infiltration, and Grade 4—>75% infiltration."}},
  "data": [
    {"smiles": "CC(=O)[O-].[Na+]", "note": "[acetate, sodium acetate]", "values": [
      {"measurement": "development of diabetes", "setting": "female NOD mice; vs controls", "result": "significantly delayed"},
      {"measurement": "T1D incidence", "setting": "female NOD mice; at age 30 weeks", "result": 40, "unit": "%"},
      {"measurement": "insulitis (islet infiltration)", "setting": "pancreatic islets", "result": "more pancreatic islets without immune cell infiltration, and fewer islets with high-grade infiltration"}
    ]}
  ]
}
